Assay results reported in patent publication US9605027B2, “Polypeptides that bound to IL-23 receptor and inhibit binding of IL-23 and cell signaling thereof” (Medical Diagnostic Laboratories, LLC, priority 2011, dated 2017).
“Also recorded” adds a separate entry of the source. Read-outs that look alike come from different tables or passages of the source. Peptide text beside a SMILES is read from it.

Molecular target: IL-23R pathway in STAT3-Luc reporter DB cells (Homo sapiens, UniProt Q5VWK5)
Assay: Cell-based STAT3-Luc reporter DB cell assay (DB-Luc), inhibition of IL-23
Procedure: (§1) The Cignal STAT3 reporter (SA Biosciences, CCS-9028L), designed to measure the transcriptional activity of STAT3 homodimers, was transiently transfected into the DB cells. The stably transfected STAT3-Luc reporter clone was selected using 200 ng/ml of Hygromycin B.
The stably transfected STAT3-Luc reporter DB cells (0.5×10^6) were cultured in 100 μl of RPMI+10% FBS. IL-23 was added to the cells and incubated at 37° C. for 4 hours. Luciferase activity was measured using Dual-Glo luciferase assay system (Promega).
The isolated cyclic polypeptide no. 23.15-Fc fusion protein and cyclic polypeptide no. 23.19 were used in a cell-based assay to measure the IC50 values. The stably transfected STAT3-Luc reporter DB cells (0.5×10^6) were cultured in 100 μl of RPMI+10% FBS. The cells were pre-incubated with different concentration of isolated cyclic polypeptide no. 23.15-Fc fusion protein or polypeptide no. 23.19 for 30 minutes at 37° C. 50 ng/ml of IL-23 was added to the cells and incubated at 37° C. for an additional 4 hours. Luciferase activity was measured using Dual-Glo luciferase assay system (Promega). The IC50 values of isolated cyclic polypeptide no. 23.15-Fc fusion protein and cyclic polypeptide no. 23.19 are 2.5 μM and 2.5 μM respectively.
The isolated peptide no. 7 (SEQ ID NO: 156) and peptide no. 23.19 (SEQ ID NO: 130) (it is a cyclic version of the polypeptide no. 23.15) were used in a cell based assay to compare their inhibitory activity. The stably transfected STAT3-Luc reporter DB cells (0.5×10^6) were cultured in 100 μl of RPMI+10% FBS. The cells were pre-incubated with two different concentrations (10 μM and 2 μM) of isolated peptides for 30 minutes at 37° C. 50 ng/ml of IL-23 was added to the cells and incubated at 37° C. for an additional 4 hours. Luciferase activity was measured using Dual-Glo luciferase assay system (Promega). The inhibitory activity of isolated peptide no. 7 (SEQ ID NO: 156) is better than that of peptide no. 23.19 (SEQ ID NO: 130) (a cyclic version of polypeptide no. 23.15 (SEQ ID NO: 126) (See, FIG. 62).
DB cells express IL-23R on the cell surface. In addition, IL-23 stimulated the DB cells through the activation of STAT3 by phosphorylation (p-STAT3) (Example 7 (Figures. 14 and 15)). Based on these observations, DB cells were used to develop a cell-based assay to measure the inhibitory activity of peptide and peptide-Fc fusion protein in the IL-23R pathway. […]
as §1, with “CCS-9028L), which is” for “CCS-9028L),”, “B. The activity of IL-23R pathway can be measured by the transcriptional activity of STAT3 homodimers. […]” for “B.”

Sequence of IL-23R pathway in STAT3-Luc reporter DB cells (Q5VWK5 24-629 limits assumed): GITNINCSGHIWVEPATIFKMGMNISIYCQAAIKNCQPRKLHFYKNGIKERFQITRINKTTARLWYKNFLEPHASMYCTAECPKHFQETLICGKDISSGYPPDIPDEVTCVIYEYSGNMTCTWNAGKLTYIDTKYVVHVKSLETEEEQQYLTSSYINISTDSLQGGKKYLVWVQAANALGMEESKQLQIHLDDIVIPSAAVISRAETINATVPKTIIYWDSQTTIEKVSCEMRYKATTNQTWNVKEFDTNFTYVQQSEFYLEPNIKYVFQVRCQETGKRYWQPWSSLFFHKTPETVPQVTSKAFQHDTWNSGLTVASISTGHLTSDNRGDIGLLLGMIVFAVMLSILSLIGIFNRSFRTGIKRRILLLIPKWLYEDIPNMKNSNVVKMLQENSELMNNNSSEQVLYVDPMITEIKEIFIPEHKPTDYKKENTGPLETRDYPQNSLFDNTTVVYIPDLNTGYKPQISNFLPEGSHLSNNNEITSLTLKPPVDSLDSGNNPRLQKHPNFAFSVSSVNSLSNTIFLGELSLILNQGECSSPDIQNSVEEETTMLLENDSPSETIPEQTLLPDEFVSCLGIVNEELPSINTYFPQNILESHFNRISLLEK

| IC50 (procedure of Example 29, read-out: IC50, cell-based DB-Luc assay) | IC50 (50 ng/ml IL-23, 4 hours, read-out: IC50, cell-based STAT3-Luc assay) | SMILES | inhibitory activity in cell-based DB-Luc assay (cyclic vs linear peptides) |
| --- | --- | --- | --- |
| 0.342 µM | – | CSCC[C@@H]1NC(=O)[C@H](CCCCN)NC(=O)[C@H](C)NC(=O)[C@H](C)NC(=O)[C@H](CS)NC(=O)[C@H](CC(N)=O)NC(=O)[C@H](CCCCN)NC(=O)[C@H](CC(C)C)NC(=O)[C@H](Cc2c[nH]c3ccccc23)NC(=O)[C@H](Cc2ccc(O)cc2)NC(=O)[C@H](CC(=O)O)NC(=O)[C@H](C(C)C)NC(=O)[C@H](Cc2c[nH]c3ccccc23)NC(=O)[C@H]([C@@H](C)O)NC1=O [2HT AA] (cyclo(AAKMTWVDYWLKNC)) | did not eliminate the inhibitory activity; also recorded: best inhibitory activity |
| – | 2.5 µM | CSCC[C@@H]1NC(=O)[C@H](C)NC(=O)[C@@H](N)CSSC[C@@H](C(=O)O)NC(=O)[C@H](CCCNC(=N)N)NC(=O)CNC(=O)[C@H](Cc2ccc(O)cc2)NC(=O)[C@H](CC(C)C)NC(=O)[C@H](Cc2c[nH]c3ccccc23)NC(=O)[C@H](Cc2ccc(O)cc2)NC(=O)[C@H](CC(=O)O)NC(=O)[C@H](CCC(N)=O)NC(=O)[C@H](Cc2c[nH]c3ccccc23)NC(=O)[C@H]([C@@H](C)O)NC1=O [23.19] | – |
